According to paper PMC10323144, “Garbage in, garbage out: how reliable training data improved a virtual screening approach against SARS-CoV-2 MPro” (Frontiers in Pharmacology, 2023):
Square brackets hold non-standard residues; d marks the D form. Peptide text beside a SMILES is read from it. * marks the point of attachment. ξ: configuration not given here. NMeF = CN[CH](Cc1ccccc1)C(=O)O; NMeA = CN[CH](C)C(=O)O; Boc = CC(C)(C)OC(=O)*; ξV = CC(C)C(N)C(=O)O; GABA = NCCCC(=O)O; ξA = CC(N)C(=O)O; tBu = CC(C)(C)*

Target: SARS-CoV-2 MPro (Severe acute respiratory syndrome coronavirus 2, UniProt P0DTD1)
Assay: MPro activity assay (de-quenching of Edans fluorescence on cleavage of a Dabcyl/Edans peptide)
Type: biochemical
Details: 60 min pre-incubation, 5 μM substrate

| Compound | IC50 [µM] |
| --- | --- |
| Cc1ccc(S(=O)(=O)Nc2nc3cc(Cl)c(Oc4cccc(Cl)c4Cl)cc3[nH]2)cc1 [Cpd 31] | > 25 |
| COC(=O)[C@@H](Cc1ccccc1)NC(=O)C(C)NC(=O)[C@@H](NC(=O)C(NC(=O)CCCNC(=O)OC(C)(C)C)C(C)C)C(C)C (some centres unmarked) [2a] ({Boc-GABA}-[ξV]V[ξA][dF]-OMe) | 32.1 ± 1.4 |

Same assay, conditions: in-house acquired data, internal screening under standardized conditions (128 compounds)

| Compound | Class (MPro activity class) |
| --- | --- |
| O=C(Cn1ccnc1NC(=O)c1ccccc1I)NCc1ccccc1 [COV19022] | 0 (compounds with IC50 > 20 μM, percentage inhibition <80% at 20 µM or 50 μM, or percentage enzyme inhibition <50% at 10 µM were labelled as INACTIVE) |
| Cc1ccc(S(=O)(=O)Nc2nc3cc(Cl)c(Oc4cccc(Cl)c4Cl)cc3[nH]2)cc1 [Cpd 31] | 0 (compounds with IC50 > 20 μM, percentage inhibition <80% at 20 µM or 50 μM, or percentage enzyme inhibition <50% at 10 µM were labelled as INACTIVE) |
| Cc1c(C(=O)Nc2ccccc2)[n+]([O-])c2cc(CN(C)CC=Cc3ccccc3)ccc2[n+]1[O-] [COV19291] | 0 (compounds with IC50 > 20 μM, percentage inhibition <80% at 20 µM or 50 μM, or percentage enzyme inhibition <50% at 10 µM were labelled as INACTIVE) |
| Cc1ccc2nc(N3C(=O)C(O)=C(C(=O)c4ccc5c(c4)OCCO5)C3c3ccccc3)sc2c1 (centres unmarked) [ADRMC151] | 0 (compounds with IC50 > 20 μM, percentage inhibition <80% at 20 µM or 50 μM, or percentage enzyme inhibition <50% at 10 µM were labelled as INACTIVE) |
| O=C(Nc1ccc(C(F)(F)F)cc1)c1ccccc1I [COV19037] | 0 (compounds with IC50 > 20 μM, percentage inhibition <80% at 20 µM or 50 μM, or percentage enzyme inhibition <50% at 10 µM were labelled as INACTIVE) |
| O=C(C1=C(O)C(=O)N(c2nc3ccc(Cl)cc3s2)C1c1ccccc1)c1ccc2c(c1)OCCO2 (centres unmarked) [ADRMC159] | 0 (compounds with IC50 > 20 μM, percentage inhibition <80% at 20 µM or 50 μM, or percentage enzyme inhibition <50% at 10 µM were labelled as INACTIVE) |
| CC1C(=O)NC(Cc2ccc(OC(C)(C)C)cc2)C(=O)NCC(=O)N(C)C(Cc2ccccc2)C(=O)N1C (centres unmarked) [COV19081] (cyclo(G[NMeF][NMeA]Y(tBu)); configuration not given here) | 0 (compounds with IC50 > 20 μM, percentage inhibition <80% at 20 µM or 50 μM, or percentage enzyme inhibition <50% at 10 µM were labelled as INACTIVE) |
| CC(=NNC(N)=O)c1cc2ccccc2oc1=O [COV19144] | 0 (compounds with IC50 > 20 μM, percentage inhibition <80% at 20 µM or 50 μM, or percentage enzyme inhibition <50% at 10 µM were labelled as INACTIVE) |
| COC(=O)CN1C(=O)C(C2C(=O)OCC2c2ccccc2)C1C=Cc1ccccc1 (centres unmarked) [CMD111] | 0 (compounds with IC50 > 20 μM, percentage inhibition <80% at 20 µM or 50 μM, or percentage enzyme inhibition <50% at 10 µM were labelled as INACTIVE) |
| O=C(C1=C(O)C(=O)N(c2nc3ccc(Cl)cc3s2)C1c1ccc(F)cc1)c1ccc2c(c1)OCCO2 (centres unmarked) [ADRMC150] | 0 (compounds with IC50 > 20 μM, percentage inhibition <80% at 20 µM or 50 μM, or percentage enzyme inhibition <50% at 10 µM were labelled as INACTIVE) |
| Nc1ncc2cc(-c3ccc4c(c3)OCO4)c(N)nc2n1 [ZVR108] | 0 (compounds with IC50 > 20 μM, percentage inhibition <80% at 20 µM or 50 μM, or percentage enzyme inhibition <50% at 10 µM were labelled as INACTIVE) |
| CC(=NNC(N)=[Se])c1cc2ccccc2oc1=O [COV19145] | 0 (compounds with IC50 > 20 μM, percentage inhibition <80% at 20 µM or 50 μM, or percentage enzyme inhibition <50% at 10 µM were labelled as INACTIVE) |
| COc1ccc(C2C(C(=O)c3ccc4c(c3)OCCO4)=C(O)C(=O)N2c2nc3ccc(C)cc3s2)cc1OC (centres unmarked) [ADRMC153] | 0 (compounds with IC50 > 20 μM, percentage inhibition <80% at 20 µM or 50 μM, or percentage enzyme inhibition <50% at 10 µM were labelled as INACTIVE) |
| CNC(=S)NN=C(C)c1c(O)c2ccccc2oc1=O [COV19141] | 0 (compounds with IC50 > 20 μM, percentage inhibition <80% at 20 µM or 50 μM, or percentage enzyme inhibition <50% at 10 µM were labelled as INACTIVE) |
| O=C1NCCCCC1n1sc2ccccc2c1=O (centres unmarked) [COV19020] | 1 (Compounds with IC50 < 10 µM or with a percentage of enzyme inhibition >50% at 10 µM were labelled as ACTIVE) |
| O=C(Nc1ccc(Cl)cc1)c1ccccc1I [COV19027] | 0 (compounds with IC50 > 20 μM, percentage inhibition <80% at 20 µM or 50 μM, or percentage enzyme inhibition <50% at 10 µM were labelled as INACTIVE) |
| O=S(=O)(C=Cc1ccc2no[n+]([O-])c2c1)c1ccc(Cl)cc1 [COV19499] | 1 (Compounds with IC50 < 10 µM or with a percentage of enzyme inhibition >50% at 10 µM were labelled as ACTIVE) |
| O=C(O)C(=O)NC1CCc2nc(NC(=O)c3cc(Cl)c(Cl)[nH]3)sc2C1 (centres unmarked) [Cpd 51] | 0 (compounds with IC50 > 20 μM, percentage inhibition <80% at 20 µM or 50 μM, or percentage enzyme inhibition <50% at 10 µM were labelled as INACTIVE) |

| Compound | Class (MPro activity class) |
| --- | --- |
| CC(=NNC(=S)Nc1ccccc1)c1c(O)c2ccccc2oc1=O [COV19143] | 0 (compounds with IC50 > 20 μM, percentage inhibition <80% at 20 µM or 50 μM, or percentage enzyme inhibition <50% at 10 µM were labelled as INACTIVE) |
| CC(C)(C)OC(=O)NC1CCCN(CC(=O)NC(Cc2ccccc2)C(=O)Nc2nc3cc(Sc4ccccc4)ccc3[nH]2)C1=O (centres unmarked) [COV19184] | 0 (compounds with IC50 > 20 μM, percentage inhibition <80% at 20 µM or 50 μM, or percentage enzyme inhibition <50% at 10 µM were labelled as INACTIVE) |
| CCCOC(=O)C(Cc1ccccc1)NC(=O)CN1CCCC(NC(=O)OC(C)(C)C)C1=O (centres unmarked) [COV19185] | 0 (compounds with IC50 > 20 μM, percentage inhibition <80% at 20 µM or 50 μM, or percentage enzyme inhibition <50% at 10 µM were labelled as INACTIVE) |
| CCOC(=O)c1ncc(-n2sc3ccccc3c2=O)s1 [COV19019] | 1 (Compounds with IC50 < 10 µM or with a percentage of enzyme inhibition >50% at 10 µM were labelled as ACTIVE) |
| CCn1nc(C)cc1C(=O)N(Cc1ccccc1)Cc1ccccc1 [ZVR-117] | 0 (compounds with IC50 > 20 μM, percentage inhibition <80% at 20 µM or 50 μM, or percentage enzyme inhibition <50% at 10 µM were labelled as INACTIVE) |
| COc1ccc(C2C(C(=O)c3ccc4c(c3)OCCO4)=C(O)C(=O)N2c2nc3ccc(Cl)cc3s2)cc1 (centres unmarked) [AD84] | 0 (compounds with IC50 > 20 μM, percentage inhibition <80% at 20 µM or 50 μM, or percentage enzyme inhibition <50% at 10 µM were labelled as INACTIVE) |
| COc1cc(OC)cc(-c2cc3cnc(N)nc3nc2N)c1 [ZVR-100] | 0 (compounds with IC50 > 20 μM, percentage inhibition <80% at 20 µM or 50 μM, or percentage enzyme inhibition <50% at 10 µM were labelled as INACTIVE) |
| Cc1cc(Cl)cc2sn(Cc3ccccc3)c(=O)c12 [COV19006] | 1 (Compounds with IC50 < 10 µM or with a percentage of enzyme inhibition >50% at 10 µM were labelled as ACTIVE) |
| Cc1ccc(-n2sc3ccccc3c2=O)cc1 [COV19015] | 1 (Compounds with IC50 < 10 µM or with a percentage of enzyme inhibition >50% at 10 µM were labelled as ACTIVE) |
| O=C(Nc1ccccc1)c1ccccc1I [COV19026] | 0 (compounds with IC50 > 20 μM, percentage inhibition <80% at 20 µM or 50 μM, or percentage enzyme inhibition <50% at 10 µM were labelled as INACTIVE) |
| Cc1cccc(C(=O)Nc2ccccc2)c1I [COV19034] | 0 (compounds with IC50 > 20 μM, percentage inhibition <80% at 20 µM or 50 μM, or percentage enzyme inhibition <50% at 10 µM were labelled as INACTIVE) |
| O=S(=O)(C=Cc1ccc2no[n+]([O-])c2c1)c1ccc(F)cc1 [COV19500] | 1 (Compounds with IC50 < 10 µM or with a percentage of enzyme inhibition >50% at 10 µM were labelled as ACTIVE) |
| CN(CCc1ccc(Cl)cc1)C(=S)c1ccccc1I [COV19183] | 0 (compounds with IC50 > 20 μM, percentage inhibition <80% at 20 µM or 50 μM, or percentage enzyme inhibition <50% at 10 µM were labelled as INACTIVE) |
| CCCN1C(=O)C(O)=C(C(=O)c2ccccc2)C1c1ccccc1 (centres unmarked) [AD85] | 0 (compounds with IC50 > 20 μM, percentage inhibition <80% at 20 µM or 50 μM, or percentage enzyme inhibition <50% at 10 µM were labelled as INACTIVE) |
| COc1ccc(C2C(C(=O)c3ccc(OC)c(OC)c3)=C(O)C(=O)N2c2nc3ccc(OC)cc3s2)cc1 (centres unmarked) [ADKPN162] | 0 (compounds with IC50 > 20 μM, percentage inhibition <80% at 20 µM or 50 μM, or percentage enzyme inhibition <50% at 10 µM were labelled as INACTIVE) |
| O=c1c2ccccc2sn1-c1ccc([N+](=O)[O-])cc1 [COV19014] | 1 (Compounds with IC50 < 10 µM or with a percentage of enzyme inhibition >50% at 10 µM were labelled as ACTIVE) |
| NC1CCc2nc(NC(=O)c3cc(Cl)c(Cl)[nH]3)sc2C1 (centres unmarked) [Cpd 49] | 0 (compounds with IC50 > 20 μM, percentage inhibition <80% at 20 µM or 50 μM, or percentage enzyme inhibition <50% at 10 µM were labelled as INACTIVE) |

Same assay, conditions: read-out: % activity MPro

| Compound | activity at 25 µM [%] |
| --- | --- |
| O=C(O)C(=O)NC1CCc2nc(NC(=O)c3cc(Cl)c(Cl)[nH]3)sc2C1 (centres unmarked) [Cpd 51] | 107 ± 5.7 |

Same assay, conditions: read-out: MPro activity (%)

| Compound | activity at 25 µM [%] |
| --- | --- |
| Cc1ccc([S+]([O-])/C=C/c2ccc3no[n+]([O-])c3c2)cc1 (centres unmarked) [11d] | 70.6 ± 0.8 |
| COc1ccc2no[n+]([O-])c2c1 [6d] | 85.8 ± 3.5 |
| O=S(=O)(/C=C\c1ccc2no[n+]([O-])c2c1)c1ccccc1 [18d] | 71.2 ± 0.9 |
| CC(=O)OC[C@H]1O[C@@H](Sc2ccccc2)[C@H](OC(C)=O)[C@@H](OC(C)=O)C1OC(C)=O (some centres unmarked) [6a] | 60.9 ± 1.5 |
| [O-][n+]1onc2ccc(/C=C\c3ccc4c(c3)OCO4)cc21 [15d] | 67.4 ± 1.8 |
| [O-][n+]1onc2ccc(/C=C/[S+]([O-])c3ccccc3)cc21 (centres unmarked) [8d] | 91.6 ± 0.1 |

Same assay, conditions: read-out: MPro inhibition

| Compound | inhibition at 25 µM [%] |
| --- | --- |
| O=C1/C(=C/C=C/c2cccs2)CC/C1=C\C=C\c1cccs1 [37d] | 20 to 40 |
| [O-][n+]1cc[n+]([O-])c2ccccc21 [38d] | 20 to 40 |
| COc1ccc(S(=O)(=O)Nc2nc3cc(Cl)c(Oc4cccc(Cl)c4Cl)cc3[nH]2)cc1 [30d] | 42 |
